Data taken from PubChem BioAssay (NCI).
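In this assay, cells in 96-well plates receive the compound at five concentrations for 48 hours. Endpoints are linearly interpolated between the surrounding concentrations. TGI marks complete inhibition of growth.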

Key:
Assay in all cases: growth of human tumour cells (NCI), 48 h
786-0 renal = test system: 786-0 renal
A498 renal = test system: A498 renal
A549 NSCLC = test system: A549 NSCLC
ACHN renal = test system: ACHN renal
BT-549 breast = test system: BT-549 breast
CAKI-1 renal = test system: CAKI-1 renal
COLO 205 colon = test system: COLO 205 colon
DU-145 prostate = test system: DU-145 prostate
EKVX NSCLC = test system: EKVX NSCLC
HCC-2998 colon = test system: HCC-2998 colon
HCT-116 colon = test system: HCT-116 colon
HCT-15 colon = test system: HCT-15 colon
HL-60(TB) leukemia = test system: HL-60(TB) leukemia
HOP-62 NSCLC = test system: HOP-62 NSCLC
HOP-92 NSCLC = test system: HOP-92 NSCLC
HS 578T breast = test system: HS 578T breast
HT29 colon = test system: HT29 colon
IGROV1 ovarian = test system: IGROV1 ovarian
K-562 leukemia = test system: K-562 leukemia
KM12 colon = test system: KM12 colon
LOX IMVI melanoma = test system: LOX IMVI melanoma
M14 melanoma = test system: M14 melanoma
MCF7 breast = test system: MCF7 breast
MDA-MB-231 breast = test system: MDA-MB-231 breast
MDA-MB-435 = test system: MDA-MB-435
MDA-N = test system: MDA-N
MOLT-4 leukemia = test system: MOLT-4 leukemia
NCI-H226 lung = test system: NCI-H226 lung
NCI-H23 lung = test system: NCI-H23 lung
NCI-H460 lung = test system: NCI-H460 lung
NCI-H522 lung = test system: NCI-H522 lung
NCI/ADR-RES ovarian = test system: NCI/ADR-RES ovarian
OVCAR-3 ovarian = test system: OVCAR-3 ovarian
OVCAR-4 ovarian = test system: OVCAR-4 ovarian
OVCAR-5 ovarian = test system: OVCAR-5 ovarian
OVCAR-8 ovarian = test system: OVCAR-8 ovarian
PC-3 prostate = test system: PC-3 prostate
RPMI-8226 leukemia = test system: RPMI-8226 leukemia
RXF 393 renal = test system: RXF 393 renal
SF-268 CNS = test system: SF-268 CNS
SF-295 CNS = test system: SF-295 CNS
SF-539 CNS = test system: SF-539 CNS
SK-MEL-2 melanoma = test system: SK-MEL-2 melanoma
SK-MEL-28 melanoma = test system: SK-MEL-28 melanoma
SK-MEL-5 melanoma = test system: SK-MEL-5 melanoma
SK-OV-3 ovarian = test system: SK-OV-3 ovarian
SN12C renal = test system: SN12C renal
SNB-19 CNS = test system: SNB-19 CNS
SNB-75 CNS = test system: SNB-75 CNS
SR leukemia = test system: SR leukemia
SW-620 colon = test system: SW-620 colon
T-47D breast = test system: T-47D breast
TK-10 renal = test system: TK-10 renal
U251 CNS = test system: U251 CNS
UACC-257 melanoma = test system: UACC-257 melanoma
UACC-62 melanoma = test system: UACC-62 melanoma
UO-31 renal = test system: UO-31 renal
CCRF-CEM leukemia = test system: CCRF-CEM leukemia
MALME-3M melanoma = test system: MALME-3M melanoma

COc1ccc(C2SCC(=O)N2NC(=O)C(C)Oc2ccc(Cl)cc2Cl)cc1 (stereo not given)
TGI (786-0 renal): 41.7 µM | TGI (A498 renal): 76.4 µM | TGI (A549 NSCLC): > 100 µM | TGI (ACHN renal): > 100 µM | TGI (BT-549 breast): 52.8 µM | TGI (CAKI-1 renal): 47.3 µM | TGI (COLO 205 colon): > 100 µM | TGI (DU-145 prostate): > 100 µM | TGI (EKVX NSCLC): > 100 µM | TGI (HCC-2998 colon): > 100 µM | TGI (HCT-116 colon): > 100 µM | TGI (HCT-15 colon): > 100 µM | TGI (HL-60(TB) leukemia): 34.8 µM | TGI (HOP-62 NSCLC): 48.2 µM | TGI (HOP-92 NSCLC): 63.6 µM | TGI (HS 578T breast): > 100 µM | TGI (HT29 colon): > 100 µM | TGI (IGROV1 ovarian): > 100 µM | TGI (K-562 leukemia): 89.8 µM | TGI (KM12 colon): > 100 µM | TGI (LOX IMVI melanoma): > 100 µM | TGI (M14 melanoma): > 100 µM | TGI (MCF7 breast): > 100 µM | TGI (MDA-MB-231 breast): 81 µM | TGI (MDA-MB-435): > 100 µM | TGI (MDA-N): > 100 µM | TGI (MOLT-4 leukemia): 94.6 µM | TGI (NCI-H226 lung): 33.6 µM | TGI (NCI-H23 lung): > 100 µM | TGI (NCI-H460 lung): > 100 µM | TGI (NCI-H522 lung): > 100 µM | TGI (NCI/ADR-RES ovarian): > 100 µM | TGI (OVCAR-3 ovarian): > 100 µM | TGI (OVCAR-4 ovarian): 52.6 µM | TGI (OVCAR-5 ovarian): > 100 µM | TGI (OVCAR-8 ovarian): > 100 µM | TGI (PC-3 prostate): 75.6 µM | TGI (RPMI-8226 leukemia): > 100 µM | TGI (RXF 393 renal): 59.2 µM | TGI (SF-268 CNS): > 100 µM | TGI (SF-295 CNS): > 100 µM | TGI (SF-539 CNS): 35.9 µM | TGI (SK-MEL-2 melanoma): > 100 µM | TGI (SK-MEL-28 melanoma): 96.3 µM | TGI (SK-MEL-5 melanoma): > 100 µM | TGI (SK-OV-3 ovarian): > 100 µM | TGI (SN12C renal): > 100 µM | TGI (SNB-19 CNS): > 100 µM | TGI (SNB-75 CNS): 51.1 µM | TGI (SR leukemia): 17.3 µM | TGI (SW-620 colon): > 100 µM | TGI (T-47D breast): > 100 µM | TGI (TK-10 renal): > 100 µM | TGI (U251 CNS): > 100 µM | TGI (UACC-257 melanoma): > 100 µM | TGI (UACC-62 melanoma): > 100 µM | TGI (UO-31 renal): > 100 µM

COc1cc(C)cc2c(-c3c(O)cc(O)c4c3C[C@H](C)N[C@H]4C)cc(-c3cc(-c4c(O)cc(O)c5c4C[C@H](C)N[C@H]5C)c4cc(C)cc(OC)c4c3O)c(O)c12
TGI (786-0 renal): > 100 µM | TGI (A498 renal): > 100 µM | TGI (A549 NSCLC): > 100 µM | TGI (ACHN renal): > 100 µM | TGI (BT-549 breast): > 100 µM | TGI (CAKI-1 renal): > 100 µM | TGI (CCRF-CEM leukemia): > 100 µM | TGI (COLO 205 colon): > 100 µM | TGI (DU-145 prostate): > 100 µM | TGI (EKVX NSCLC): > 100 µM | TGI (HCC-2998 colon): > 100 µM | TGI (HCT-116 colon): > 100 µM | TGI (HCT-15 colon): > 100 µM | TGI (HL-60(TB) leukemia): > 100 µM | TGI (HOP-62 NSCLC): > 100 µM | TGI (HOP-92 NSCLC): > 100 µM | TGI (HS 578T breast): > 100 µM | TGI (HT29 colon): > 100 µM | TGI (IGROV1 ovarian): > 100 µM | TGI (K-562 leukemia): > 100 µM | TGI (KM12 colon): > 100 µM | TGI (M14 melanoma): > 100 µM | TGI (MALME-3M melanoma): > 100 µM | TGI (MCF7 breast): > 100 µM | TGI (MDA-MB-231 breast): > 100 µM | TGI (MDA-MB-435): > 100 µM | TGI (MDA-N): > 100 µM | TGI (MOLT-4 leukemia): > 100 µM | TGI (NCI-H226 lung): > 100 µM | TGI (NCI-H23 lung): > 100 µM | TGI (NCI-H460 lung): > 100 µM | TGI (NCI-H522 lung): > 100 µM | TGI (NCI/ADR-RES ovarian): > 100 µM | TGI (OVCAR-3 ovarian): > 100 µM | TGI (OVCAR-4 ovarian): > 100 µM | TGI (OVCAR-5 ovarian): > 100 µM | TGI (OVCAR-8 ovarian): > 100 µM | TGI (PC-3 prostate): > 100 µM | TGI (RPMI-8226 leukemia): > 100 µM | TGI (RXF 393 renal): > 100 µM | TGI (SF-268 CNS): > 100 µM | TGI (SF-295 CNS): > 100 µM | TGI (SF-539 CNS): > 100 µM | TGI (SK-MEL-2 melanoma): > 100 µM | TGI (SK-MEL-28 melanoma): > 100 µM | TGI (SK-MEL-5 melanoma): > 100 µM | TGI (SK-OV-3 ovarian): > 100 µM | TGI (SN12C renal): > 100 µM | TGI (SNB-19 CNS): > 100 µM | TGI (SNB-75 CNS): > 100 µM | TGI (SR leukemia): > 100 µM | TGI (SW-620 colon): > 100 µM | TGI (T-47D breast): > 100 µM | TGI (TK-10 renal): > 100 µM | TGI (U251 CNS): > 100 µM | TGI (UACC-257 melanoma): > 100 µM | TGI (UACC-62 melanoma): > 100 µM | TGI (UO-31 renal): > 100 µM
